Assay results from patent US20260109713A1, “SIRTUIN MODULATING COMPOUNDS, INCLUDING SIRTUIN ACTIVATING COMPOUNDS, AND APPLICATIONS THEREOF” (CODAGEN BIOSCIENCES, INC., priority 2022, published 2026).

Legend:
Assay type in all cases: biochemical
hSIRT3 = target: T1, hSIRT3 (Homo sapiens, UniProt Q9NTG7); assay: Fluorescence-based SIRT3 deacetylation assay using FdL2 peptide, steady state (Conditions I); details: triplicate
T1 construct: His-tag; purchased Enzo Life Sciences (Farmingdale, NY)
T1 sequence (Q9NTG7 102-399): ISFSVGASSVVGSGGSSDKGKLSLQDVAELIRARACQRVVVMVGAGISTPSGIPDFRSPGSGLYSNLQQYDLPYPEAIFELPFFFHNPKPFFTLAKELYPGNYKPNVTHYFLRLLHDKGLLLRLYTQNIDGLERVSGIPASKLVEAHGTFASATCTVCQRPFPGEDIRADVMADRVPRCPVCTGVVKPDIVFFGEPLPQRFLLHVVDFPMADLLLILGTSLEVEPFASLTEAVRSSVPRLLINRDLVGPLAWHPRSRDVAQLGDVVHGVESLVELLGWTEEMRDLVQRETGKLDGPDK
Protocol: FIG. 4. Effect of top ranked hit compounds on Sirt3 deacetylation activity.
The 6 top ranked compounds from DEL screening were tested modulation effect of SIRT3 using fluorescence-based assay (FIG. 4).
The enzymatic reactions were carried out similar to as described above. The reaction was terminated by adding the 1× developer 2 mM NAM solution and measured the fluorescence on TECAN microplate reader. The raw data were fitted to the defined model equations using GraphPad Prism (GraphPad Software, Inc, CA).

hSIRT3 102-399 [1] = target: T2, hSIRT3 102-399 (Homo sapiens, UniProt Q9NTG7); assay: HPLC assay of hSIRT3 102-399 deacetylation of MnSOD peptide, Conditions I (steady state): 1000 μM NAD+, 50 μM MnSOD peptide; details: for Conditions I, Effect: Conditions I (steady state), HPLC/FdL; for Activity test, Conditions I, HPLC: Conditions I: 1000 μM NAD+, 50 μM MnSOD peptide, 50 μM compound, 30 min, triplicate, same values as % control in Table 3
T2 construct: His-tag; purchased Enzo Life Sciences (Farmingdale, NY)
T2 sequence (Q9NTG7 102-399): T1 sequence (Q9NTG7 102-399)
Protocol: […] The peptide product and substrate were resolved using HPLC (reversed-phase C18 HPLC Column). Solvent A was composed of 90% HPLC grade water and 10% acetonitrile with 0.05% (v/v) TFA. Solvent B was composed of acetonitrile with 0.02% (v/v) TFA. […] Then returned to the starting conditions (0% B) within 5 min. Solvent A percentage (100%) was maintained at 100% for 5 additional minutes (36 min total run time).

hSIRT3 102-399 [2] = target: T2, hSIRT3 102-399; assay: HPLC assay of hSIRT3 102-399 deacetylation of MnSOD peptide, Conditions II (non-steady state): 50 μM NAD+, 600 μM peptide; details: for Conditions II, Effect: Conditions II (non-steady state); for Activity test, Conditions II, HPLC: Conditions II: 50 μM NAD+, 600 μM peptide, 10 μM compound, triplicate
Protocol: FIG. 5. Sirt3 activation by top ranked hit compounds.
The deacetylation activity of SIRT3 was detected in the presence of 10 μM compound of AA8AC40 under non-steady state condition (FIG. 5) using HPLC-based assay. […] The test compound is expected to experience three phases (presteady state, steady-state, and post steady state) during the enzymatic reaction. The pre and post-steady state can be considered as non-steady state, in which the enzyme concentration vs. NAD^+ substrate concentration ratio is high. Depending on the initial ratio of enzyme to limiting substrate in the system (and the ratio of enzyme to test compound concentration), the net effect of test compound over the course of the reaction can be either inhibitory or activating, with activation occurring if this ratio is above a threshold value.
Enzymatic reactions included either 1000 μM NAD^+ and 50 μM MnSOD peptide (Conditions I) or 50 μM NAD^+ and 600 μM peptide substrate (Conditions II) in presence of hit compounds (50 μM (Conditions I) or 10 μM (Conditions II)), in a HDAC buffer (50 mM TRIS-HCl, pH 8.0, containing 137 mM sodium chloride, 2.7 mM potassium chloride, and 1 mM magnesium chloride) dimethyl sulfoxide solution 95/5. […] The reaction was terminated by adding a stopping solution (final concentration of 2% TFA, 5 mM Nicotinamide). The peptide product and substrate were resolved using HPLC (reversed-phase C18 HPLC Column). Solvent A was composed of 90% HPLC grade water and 10% acetonitrile with 0.05% (v/v) TFA. Solvent B was composed of acetonitrile with 0.02% (v/v) TFA. […] Then returned to the starting conditions (0% B) within 5 min. Solvent A percentage (100%) was maintained at 100% for 5 additional minutes (36 min total run time).

## Nc1nc2n(n1)C(c1ccc(OCc3ccccc3)cc1)CC(c1ccc(Cl)cc1)N2 (stereo not drawn) [FIG. 14]
hSIRT3
  Activity test, Conditions I, FdL: 101.2
hSIRT3 102-399 [1]
  Conditions I, Effect: Slight Activator
  Activity test, Conditions I, HPLC: 106.7
hSIRT3 102-399 [2]
  Conditions II, Effect: Activator
  Activity test, Conditions II, HPLC: 108.1

## O=C1NCCN(C(=O)c2cccc(-c3cnn4ccccc34)c2)C1CCO (stereo not drawn) [FIG. 227]
hSIRT3
  Activity test, Conditions I, FdL: 88.1
hSIRT3 102-399 [1]
  Conditions I, Effect: Inhibitor
  Activity test, Conditions I, HPLC: 98.2
hSIRT3 102-399 [1]; steady state, 10 μM modulator
  % Control in vitro modulation, Steady-state: 98.2 % Control
hSIRT3 102-399 [2]
  Conditions II, Effect: Slight Activator
  Activity test, Conditions II, HPLC: 103.1
hSIRT3 102-399 [2]; non-steady state, 10 μM modulator
  % Control in vitro modulation, Non-Steady state: 103.1 % Control
